≈ marks a conversion by molar mass, not a printed value. Calls of active or inactive are those of the source. The rule behind the calls is not given here.
Key:
[1] = Aqueous solubility of the compound; format: physicochemical; conditions: buffer
[2] = Half life in dog at 3 mg/kg, iv or 30 mg/kg, po; format: ADME, organism-based, Canis lupus familiaris; conditions: in vivo
[3] = Volume of distribution at steady state in dog at 3 mg/kg, iv or 30 mg/kg, po; format: ADME, organism-based, Canis lupus familiaris; conditions: in vivo, read-out: Vdss
[4] = Volume of distribution at steady state in CD1 rat at 3 mg/kg, iv or 30 mg/kg, po; format: ADME, organism-based; conditions: in vivo, read-out: Vdss
[5] = Clearance in dog at 3 mg/kg, iv or 30 mg/kg, po; format: ADME, organism-based, Canis lupus familiaris; conditions: in vivo
[6] = Intrinsic clearance in rat hepatocytes; format: ADME, cell-based, Liver, Hepatocyte
[7] = Intrinsic clearance in dog hepatocytes; format: ADME, cell-based, Canis lupus familiaris, Liver, Hepatocyte
[8] = Permeability in artificial membrane assay; format: ADME, cell membranes
[9] = Clearance in CD1 rat at 3 mg/kg, iv or 30 mg/kg, po; format: ADME, organism-based; conditions: in vivo
[10] = Oral bioavailability in dog at 30 mg/kg; format: ADME, organism-based, Canis lupus familiaris; conditions: in vivo
[11] = Half life in CD1 rat at 3 mg/kg, iv or 30 mg/kg, po; format: ADME, organism-based; conditions: in vivo
[12] = Oral bioavailability in CD1 rat at 30 mg/kg; format: ADME, organism-based; conditions: in vivo
[13] = Volume of distribution at steady state in CD1 rat at 2.5 mg/kg, iv or 5 mg/kg, po; format: ADME, organism-based; conditions: in vivo, read-out: Vdss
Melanophore = assay: Induction of melanosome dispersion in melanophores; format: functional, cell-based; conditions: Xenopus laevis
Monocyte = assay: Inhibition of LPS-stimulated TNFalpha secretion in human primary monocytes; format: functional, cell-based
U2OS = assay: Increase in MRE/CRE-driven gene expression in human U2OS cells by luciferase reporter gene assay; format: functional, cell-based
[14] = Half life in CD1 rat at 2.5 mg/kg, iv or 5 mg/kg, po; format: ADME, organism-based; conditions: in vivo
[15] = Clearance in CD1 rat at 2.5 mg/kg, iv or 5 mg/kg, po; format: ADME, organism-based; conditions: in vivo
[16] = molecular target: T1, G-protein coupled bile acid receptor 1 (Rattus norvegicus, UniProt Q80T02); assay: Agonist activity at rat TGR5 expressed in melanophores assessed as melanosome dispersion by melanophore assay; format: functional
T1 sequence (Q80T02 whole entry): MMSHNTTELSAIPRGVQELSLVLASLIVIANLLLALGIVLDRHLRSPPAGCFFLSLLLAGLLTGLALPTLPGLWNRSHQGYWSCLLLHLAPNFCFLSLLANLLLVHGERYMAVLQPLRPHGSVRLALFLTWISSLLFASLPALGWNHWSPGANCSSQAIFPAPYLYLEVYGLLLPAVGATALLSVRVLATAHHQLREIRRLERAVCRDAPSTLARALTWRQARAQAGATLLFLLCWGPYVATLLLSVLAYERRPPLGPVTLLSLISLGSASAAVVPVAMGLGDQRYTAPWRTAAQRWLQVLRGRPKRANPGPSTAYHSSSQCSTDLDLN

Cytochrome P450 2D6 = Cytochrome P450 2D6 (Homo sapiens, UniProt P10635); assay: Inhibition of CYP2D6; format: ADME
Cytochrome P450 2D6, sequence (P10635 whole entry): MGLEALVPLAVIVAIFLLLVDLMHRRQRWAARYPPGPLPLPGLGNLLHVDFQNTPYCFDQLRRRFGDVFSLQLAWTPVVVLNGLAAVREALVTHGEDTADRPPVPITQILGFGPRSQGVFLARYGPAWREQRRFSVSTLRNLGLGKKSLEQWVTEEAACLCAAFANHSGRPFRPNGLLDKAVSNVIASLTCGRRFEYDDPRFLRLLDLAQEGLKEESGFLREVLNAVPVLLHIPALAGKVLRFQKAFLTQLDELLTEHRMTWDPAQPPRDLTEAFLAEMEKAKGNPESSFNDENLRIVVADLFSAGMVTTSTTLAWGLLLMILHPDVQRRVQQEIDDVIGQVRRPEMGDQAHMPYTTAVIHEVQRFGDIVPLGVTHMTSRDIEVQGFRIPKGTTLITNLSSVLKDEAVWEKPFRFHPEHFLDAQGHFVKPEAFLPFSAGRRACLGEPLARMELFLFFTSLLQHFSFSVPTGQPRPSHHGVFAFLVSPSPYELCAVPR

[17] = Oral bioavailability in CD1 rat 5 mg/kg; format: ADME, organism-based; conditions: in vivo
[18] = Agonist activity at canine TGR5 expressed in melanophores assessed as melanosome dispersion by melanophore assay; format: functional, Canis lupus familiaris
Canis familiaris [19] = assay: Decrease in portal vein glucose levels in intrajejeunally dosed conscious Beagle dog at 1 mg.kg co-administered with glucose challenge; format: functional, organism-based; conditions: Canis lupus familiaris
Cytochrome P450 2C9 = Cytochrome P450 2C9 (Homo sapiens, UniProt P11712); assay: Inhibition of CYP2C9; format: ADME
Cytochrome P450 2C9, sequence (P11712 whole entry): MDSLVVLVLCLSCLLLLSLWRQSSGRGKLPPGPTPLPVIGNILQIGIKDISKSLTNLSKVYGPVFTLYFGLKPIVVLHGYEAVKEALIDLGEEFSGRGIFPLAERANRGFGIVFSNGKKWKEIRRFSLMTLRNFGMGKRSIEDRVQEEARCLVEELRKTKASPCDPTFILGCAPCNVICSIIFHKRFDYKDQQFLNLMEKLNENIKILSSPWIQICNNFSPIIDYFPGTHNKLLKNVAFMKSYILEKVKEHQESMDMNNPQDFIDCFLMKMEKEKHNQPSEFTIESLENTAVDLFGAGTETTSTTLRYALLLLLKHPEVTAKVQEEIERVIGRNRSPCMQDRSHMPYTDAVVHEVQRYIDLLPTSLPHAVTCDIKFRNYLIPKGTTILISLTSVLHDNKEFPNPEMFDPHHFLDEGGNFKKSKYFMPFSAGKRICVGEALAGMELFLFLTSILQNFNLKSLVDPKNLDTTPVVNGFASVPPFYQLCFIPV

Canis familiaris [20] = assay: Increase in GLP1 secretion in hepatic portal vein of intrajejeunally dosed conscious Beagle dog at 1 mg.kg co-administered with glucose challenge; format: functional, organism-based; conditions: Canis lupus familiaris

Cc1ccc(N(C)C(=O)c2c(-c3ccccc3Cl)noc2C)cc1Cl gave a solubility [1] of 112 µM (≈ 42 µg/mL), a half-life [2] of 5.2 h and a Vd [3] of 8.6 L/kg. For the same molecule, the Vd [4] was 40 L/kg, the clearance [5] was 2.34 L/h/kg and the CLint [6] was 54 mL/min/g. The CLint [7] was 111 mL/min/g, the permeability [8] was 257 nanometer/sec and the clearance [9] was 8.88 L/h/kg. For the same molecule, the bioavailability [10] was 0.3%, the half-life [11] was 8.7 h and the bioavailability [12] was under 1%.

Work on CCN(C(=O)c1c(-c2ccccc2Cl)noc1C)c1cccc(Cl)c1 yielded a solubility [1] of 134 µM (≈ 50.3 µg/mL) and a permeability [8] of 310 nanometer/sec.

Molecule Cc1onc(-c2ccccc2Cl)c1C(=O)N(C)c1ccc(Cl)cc1 has a solubility [1] of 246 µM (≈ 88.9 µg/mL), a Vd [13] of 7.1 L/kg and an EC50 (Melanophore) of 20 µM. For the same molecule, the CLint [6] was 48 mL/min/g, the CLint [7] was 90 mL/min/g and the permeability [8] was 422 nanometer/sec. For the same molecule, the IC50 (Monocyte) was 0.158 µM, the EC50 (U2OS) was over 50.1 µM and the half-life [14] was 6.6 h. For the same molecule, the clearance [15] was 5.1 L/h/kg, the EC50 [16] was 2 µM and the IC50 (Cytochrome P450 2D6) was over 10 µM. For the same molecule, the bioavailability [17] was 1%, the pEC50 [18] was 7.2 and the Activity (Canis familiaris [19]) was “Active”. For the same molecule, the IC50 (Cytochrome P450 2C9) was over 10 µM and the Activity (Canis familiaris [20]) was “Active”.

Reference: ChEMBL document CHEMBL1154698, “Discovery of 3-aryl-4-isoxazolecarboxamides as TGR5 receptor agonists” (J Med Chem, 2009)
